# Results: ChEMBL document CHEMBL1275577, “Study of the in vitro activities of rifaximin and comparator agents against 536 anaerobic intestinal bacteria from the perspective of potential utility in pathology involving bowel flora” (Antimicrob Agents Chemother, 2009)
# Tests used:
# Type in all cases: functional
# Blautia luti = experiment: Antimicrobial activity against Ruminococcus luti by Wadsworth agar dilution method
# Clostridium bartlettii = experiment: Antimicrobial activity against Clostridium bartlettii by Wadsworth agar dilution method; details: Intestinibacter bartlettii
# Bacteroides fragilis = experiment: Antimicrobial activity against Bacteroides fragilis by Wadsworth agar dilution method
# [1] = tested on: Enterocloster clostridioformis; experiment: Antimicrobial activity against Clostridium clostridioforme by Wadsworth agar dilution method
# [2] = tested on: Desulfovibrio desulfuricans; experiment: Antimicrobial activity against Desulfovibrio desulfuricans by Wadsworth agar dilution method
# Prevotella bivia = experiment: Antimicrobial activity against Prevotella bivia by Wadsworth agar dilution method
# [3] = tested on: Peptostreptococcus anaerobius; experiment: Antimicrobial activity against Peptostreptococcus anaerobius by Wadsworth agar dilution method
# Clostridium scindens = experiment: Antimicrobial activity against Clostridium scindens by Wadsworth agar dilution method
# Clostridium bolteae = experiment: Antimicrobial activity against Clostridium bolteae by Wadsworth agar dilution method; details: Enterocloster bolteae
# Clostridium hathewayi = experiment: Antimicrobial activity against Clostridium hathewayi by Wadsworth agar dilution method; details: Hungatella hathewayi
# Bacteroides nordii = experiment: Antimicrobial activity against Bacteroides nordii by Wadsworth agar dilution method
# Clostridium fallax = experiment: Antimicrobial activity against Clostridium fallax by Wadsworth agar dilution method
# Bifidobacterium dentium = experiment: Antimicrobial activity against Bifidobacterium dentium by Wadsworth agar dilution method
# [4] = tested on: Porphyromonas asaccharolytica; experiment: Antimicrobial activity against Porphyromonas asaccharolyticus by Wadsworth agar dilution method
# Bifidobacterium breve = experiment: Antimicrobial activity against Bifidobacterium breve by Wadsworth agar dilution method
# [5] = tested on: Clostridium paraputrificum; experiment: Antimicrobial activity against Clostridium paraputrificum by Wadsworth agar dilution method
# Propionibacterium avidum = experiment: Antimicrobial activity against Propionibacterium avidum by Wadsworth agar dilution method; details: Cutibacterium avidum
# Clostridium septicum = experiment: Antimicrobial activity against Clostridium septicum by Wadsworth agar dilution method
# [6] = tested on: Desulfovibrio fairfieldensis; experiment: Antimicrobial activity against Desulfovibrio fairfieldensis by Wadsworth agar dilution method
# Bacteroides uniformis = experiment: Antimicrobial activity against Bacteroides uniformis by Wadsworth agar dilution method
# Collinsella aerofaciens = experiment: Antimicrobial activity against Colinsella aerofaciens by Wadsworth agar dilution method
# [7] = tested on: Lactobacillus catenaformis; experiment: Antimicrobial activity against Lactobacillus catenaformis by Wadsworth agar dilution method; details: Eggerthia catenaformis
# [8] = tested on: Lactiplantibacillus plantarum; experiment: Antimicrobial activity against Lactobacillus plantarum by Wadsworth agar dilution method
# Desulfovibrio sp. = experiment: Antimicrobial activity against Desulfovibrio sp. by Wadsworth agar dilution method
# Eubacterium cylindroides = experiment: Antimicrobial activity against Eubacterium cylindroides by Wadsworth agar dilution method; details: Faecalitalea cylindroides
# Atopobium minutum = experiment: Antimicrobial activity against Atopobium minutum by Wadsworth agar dilution method
# Bacteroides ovatus = experiment: Antimicrobial activity against Bacteroides ovatus by Wadsworth agar dilution method
# Porphyromonas somerae = experiment: Antimicrobial activity against Porphyromonas somerae by Wadsworth agar dilution method
# [9] = Antimicrobial activity against Bifidobacterium pseudocatenulatum by Wadsworth agar dilution method
# [10] = tested on: Peptoniphilus asaccharolyticus; experiment: Antimicrobial activity against Peptoniphilus asaccharolyticus by Wadsworth agar dilution method
# Fusobacterium sp. = experiment: Antimicrobial activity against Fusobacterium sp. by Wadsworth agar dilution method
# Tissierella praeacuta = experiment: Antimicrobial activity against Clostridium hastiforme by Wadsworth agar dilution method
# Desulfovibrio vulgaris = experiment: Antimicrobial activity against Desulfovibrio vulgaris by Wadsworth agar dilution method; details: Nitratidesulfovibrio vulgaris
# Fusobacterium mortiferum = experiment: Antimicrobial activity against Clostridium rectum by Wadsworth agar dilution method
# Ruminococcus gnavus = experiment: Antimicrobial activity against Ruminococcus gnavus by Wadsworth agar dilution method; details: Mediterraneibacter gnavus
# Clostridium subterminale = experiment: Antimicrobial activity against Clostridium subterminale by Wadsworth agar dilution method
# Clostridium spiroforme = experiment: Antimicrobial activity against Clostridium spiroforme by Wadsworth agar dilution method; details: Thomasclavelia spiroformis
# Clostridium butyricum = experiment: Antimicrobial activity against Clostridium butyricum by Wadsworth agar dilution method
# Bacteroides caccae = experiment: Antimicrobial activity against Bacteroides caccae by Wadsworth agar dilution method
# Eubacterium limosum = experiment: Antimicrobial activity against Eubacterium limosum by Wadsworth agar dilution method
# Clostridium sporogenes = experiment: Antimicrobial activity against Clostridium sporogenes by Wadsworth agar dilution method
# [11] = tested on: Bifidobacterium adolescentis; experiment: Antimicrobial activity against Bifidobacterium adolescentis by Wadsworth agar dilution method
# Bifidobacterium longum = experiment: Antimicrobial activity against Bifidobacterium longum by Wadsworth agar dilution method
# Holdemania filiformis = experiment: Antimicrobial activity against Holdemania filiformis by Wadsworth agar dilution method
# [12] = tested on: Fusobacterium necrophorum; experiment: Antimicrobial activity against Fusobacterium necrophorum by Wadsworth agar dilution method
# Bifidobacterium bifidum = experiment: Antimicrobial activity against Bifidobacterium bifidum by Wadsworth agar dilution method
# Finegoldia magna = experiment: Antimicrobial activity against Finegoldia magna by Wadsworth agar dilution method
# Porphyromonas = experiment: Antimicrobial activity against Porphyromonas sp. by Wadsworth agar dilution method
compound,measurement,setting,value
CO[C@H]1/C=C/O[C@@]2(C)Oc3c(C)c(O)c4c(O)c(c5c(nc6cc(C)ccn65)c4c3C2=O)NC(=O)/C(C)=C\C=C\[C@H](C)[C@H](O)[C@@H](C)[C@@H](O)[C@@H](C)[C@H](OC(C)=O)[C@@H]1C [RIFAXIMIN],MIC,Blautia luti,0.25 µg/mL
same,MIC50,Blautia luti,0.25 µg/mL
same,MIC90,Blautia luti,4 µg/mL
same,MIC,Clostridium bartlettii,0.25 µg/mL
same,MIC50,Clostridium bartlettii,0.25 µg/mL
same,MIC90,Clostridium bartlettii,> 1020 µg/mL
same,MIC,Bacteroides fragilis,0.25 µg/mL
same,MIC50,Bacteroides fragilis,0.25 µg/mL
same,MIC90,Bacteroides fragilis,> 1020 µg/mL
same,MIC50,[1],0.25 µg/mL
same,MIC90,[1],0.25 µg/mL
same,MIC,[2],32 µg/mL
same,MIC50,[2],32 µg/mL
same,MIC90,[2],64 µg/mL
same,MIC,Prevotella bivia,0.25 µg/mL
same,MIC50,Prevotella bivia,0.25 µg/mL
same,MIC90,Prevotella bivia,0.5 µg/mL
same,MIC,[3],0.25 µg/mL
same,MIC50,[3],0.25 µg/mL
same,MIC90,[3],4 µg/mL
same,MIC,Clostridium scindens,0.25 µg/mL
same,MIC50,Clostridium scindens,0.25 µg/mL
same,MIC90,Clostridium scindens,> 1020 µg/mL
same,MIC,Clostridium bolteae,0.25 µg/mL
same,MIC50,Clostridium bolteae,0.25 µg/mL
same,MIC90,Clostridium bolteae,> 1020 µg/mL
same,MIC50,Clostridium hathewayi,0.25 µg/mL
same,MIC90,Clostridium hathewayi,0.25 µg/mL
same,MIC,Bacteroides nordii,0.25 µg/mL
same,MIC50,Bacteroides nordii,0.25 µg/mL
same,MIC90,Bacteroides nordii,0.5 µg/mL
same,MIC,Clostridium fallax,0.25 µg/mL
same,MIC50,Clostridium fallax,0.25 µg/mL
same,MIC90,Clostridium fallax,> 1020 µg/mL
same,MIC50,Bifidobacterium dentium,0.5 µg/mL
same,MIC90,Bifidobacterium dentium,> 1020 µg/mL
same,MIC,[4],0.25 µg/mL
same,MIC50,[4],0.25 µg/mL
same,MIC90,[4],0.5 µg/mL
same,MIC50,Bifidobacterium breve,0.5 µg/mL
same,MIC90,Bifidobacterium breve,> 1020 µg/mL
same,MIC,[5],0.25 µg/mL
same,MIC50,[5],0.25 µg/mL
same,MIC90,[5],> 1020 µg/mL
same,MIC50,Propionibacterium avidum,0.5 µg/mL
same,MIC90,Propionibacterium avidum,> 1020 µg/mL
same,MIC,Clostridium septicum,0.25 µg/mL
same,MIC50,Clostridium septicum,0.25 µg/mL
same,MIC90,Clostridium septicum,> 1020 µg/mL
same,MIC50,[6],16 µg/mL
same,MIC90,[6],332 µg/mL
same,MIC,Bacteroides uniformis,0.25 µg/mL
same,MIC50,Bacteroides uniformis,0.25 µg/mL
same,MIC90,Bacteroides uniformis,0.5 µg/mL
same,MIC50,Collinsella aerofaciens,0.5 µg/mL
same,MIC90,Collinsella aerofaciens,> 1020 µg/mL
same,MIC50,[7],0.5 µg/mL
same,MIC90,[7],> 1020 µg/mL
same,MIC50,[8],0.5 µg/mL
same,MIC90,[8],> 1020 µg/mL
same,MIC50,Desulfovibrio sp.,16 µg/mL
same,MIC90,Desulfovibrio sp.,332 µg/mL
same,MIC50,Eubacterium cylindroides,0.5 µg/mL
same,MIC90,Eubacterium cylindroides,> 1020 µg/mL
same,MIC50,Atopobium minutum,0.5 µg/mL
same,MIC90,Atopobium minutum,> 1020 µg/mL
same,MIC50,Bacteroides ovatus,1 µg/mL
same,MIC90,Bacteroides ovatus,1 µg/mL
same,MIC,Porphyromonas somerae,0.25 µg/mL
same,MIC50,Porphyromonas somerae,0.25 µg/mL
same,MIC90,Porphyromonas somerae,0.5 µg/mL
same,MIC50,[9],0.5 µg/mL
same,MIC90,[9],> 1020 µg/mL
same,MIC,[10],0.25 µg/mL
same,MIC50,[10],0.25 µg/mL
same,MIC90,[10],4 µg/mL
same,MIC50,Fusobacterium sp.,16 µg/mL
same,MIC90,Fusobacterium sp.,> 1020 µg/mL
same,MIC,Tissierella praeacuta,0.25 µg/mL
same,MIC50,Tissierella praeacuta,0.25 µg/mL
same,MIC90,Tissierella praeacuta,> 1020 µg/mL
same,MIC50,Desulfovibrio vulgaris,16 µg/mL
same,MIC90,Desulfovibrio vulgaris,332 µg/mL
same,MIC,Fusobacterium mortiferum,0.25 µg/mL
same,MIC50,Fusobacterium mortiferum,0.25 µg/mL
same,MIC90,Fusobacterium mortiferum,> 1020 µg/mL
same,MIC,Ruminococcus gnavus,0.25 µg/mL
same,MIC50,Ruminococcus gnavus,0.25 µg/mL
same,MIC90,Ruminococcus gnavus,4 µg/mL
same,MIC,Clostridium subterminale,0.25 µg/mL
same,MIC50,Clostridium subterminale,0.25 µg/mL
same,MIC90,Clostridium subterminale,> 1020 µg/mL
same,MIC,Clostridium spiroforme,0.25 µg/mL
same,MIC50,Clostridium spiroforme,0.25 µg/mL
same,MIC90,Clostridium spiroforme,> 1020 µg/mL
same,MIC,Clostridium butyricum,0.25 µg/mL
same,MIC50,Clostridium butyricum,0.25 µg/mL
same,MIC90,Clostridium butyricum,> 1020 µg/mL
same,MIC,Bacteroides caccae,0.25 µg/mL
same,MIC50,Bacteroides caccae,0.25 µg/mL
same,MIC90,Bacteroides caccae,> 0.5 µg/mL
same,MIC50,Eubacterium limosum,0.5 µg/mL
same,MIC90,Eubacterium limosum,> 1020 µg/mL
same,MIC,Clostridium sporogenes,0.25 µg/mL
same,MIC50,Clostridium sporogenes,0.25 µg/mL
same,MIC90,Clostridium sporogenes,> 1020 µg/mL
same,MIC50,[11],0.5 µg/mL
same,MIC90,[11],> 1020 µg/mL
same,MIC50,Bifidobacterium longum,0.5 µg/mL
same,MIC90,Bifidobacterium longum,> 1020 µg/mL
same,MIC50,Holdemania filiformis,0.5 µg/mL
same,MIC90,Holdemania filiformis,> 1020 µg/mL
same,MIC50,[12],16 µg/mL
same,MIC90,[12],> 1020 µg/mL
same,MIC50,Bifidobacterium bifidum,0.5 µg/mL
same,MIC90,Bifidobacterium bifidum,> 1020 µg/mL
same,MIC,Finegoldia magna,0.25 µg/mL
same,MIC50,Finegoldia magna,0.25 µg/mL
same,MIC90,Finegoldia magna,4 µg/mL
same,MIC,Porphyromonas,0.25 µg/mL
same,MIC50,Porphyromonas,0.25 µg/mL
same,MIC90,Porphyromonas,0.5 µg/mL
